Entries after “also recorded” stand apart in the source; their conditions may differ.
Tests used:
Serotonin 5-HT2B = Serotonin 5-HT2B (Homo sapiens, UniProt P41595); assay: Eurofins Panlabs radioligand binding panel, serotonin 5-HT2B; settings: 0.3 nM to 10 μM, duplicate
cortical neurons = assay: Neurite outgrowth in embryonic rat cortical neuron cultures; type: cell-based; settings: any tested concentration (0.001 to 10000 nM), 3 days, vs vehicle
How it was run: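 Cortical neurons from E17 Wistar rat embryos were treated with compound for 3 days, then fixed and stained for βIII-tubulin. Neurite count, total length and branch points per neuron were measured by high-content imaging. Values are expressed as % of vehicle, n=12 wells from two cultures, with ANOVA and Dunnett's test.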

CD (Sprague Dawley) rats = assay: Rat functional observation battery (FOB) neurobehavioral evaluation after cumulative SC dosing; type: in vivo
Experimental: The observations were assessed through a rat functional observation battery (FOB) and continuous physiological measurements on the day of cumulative dosing, which are provided in further detail below.
Methods. A total of 42 adult male CD® (Sprague Dawley) rats (Charles River Laboratories) were surgically implanted with DSI radiotelemetry devices by personnel at Charles River Laboratories Raleigh, NC, per their test site SOPs. Telemetry devices supported continuous recording of temperature, activity, blood pressure and heart rate. Telemeterized rats were shipped to the Charles River Laboratories testing facility (Mattawan, MI) and acclimated to the environment for at least 1 week prior to experimentation. Animals were pair-housed in solid bottom cages with nonaromatic bedding. On the dosing day, animals were singly housed and then returned to the paired cohort following the dosing/telemetry recording phase. Diet (Lab Diet® Certified Rodent Diet #5CR4) and tap water via an automatic water system were available ad libitum, except during designated procedures. Temperature and humidity were maintained according to the Testing Facility SOP. Animals were randomized into treatment groups using a standard, by weight, measured value randomization procedure. Body weight was determined for each rat prior to dosing.
As illustrated in the Table, a total of 36 rats were included in the study. The vehicle and 2 test article doses were administered in a volume of 1 mL/kg to each of 3 groups of n=12 telemeterized rats via subcutaneous injection four times on a given day, followed by neurobehavioral evaluations. This series was repeated 3 times on study. Each group received all 3 dose levels of the applicable test or control article in ascending order with a 1-week washout between dose levels.
Mortality/cage side clinical observations were conducted for all study animals at least twice daily beginning upon receipt through termination, except on days of receipt and termination where frequency was at least once daily. Detailed clinical observations were conducted for all study animals prior to each of the four cumulative doses in a series. Individual body weights were conducted for all study animals at transfer, prior to randomization, on the day of dosing on each of the 3 cycles of dosing. The body weights recorded at transfer and prior to randomization are not reported but are maintained in the study file. Veterinary care was available throughout the course of the study, and animals were examined by the veterinary staff as needed based on clinical signs or other changes. All animals were provided with HydroGel the night prior to their respective dosing days to potentially mitigate any animal welfare issues related to fluid loss/dehydration.
Neurobehavioral evaluations (blinded) were conducted for all study animals 1 hour following the last (4th) cumulative dose of the series. The neurobehavioral parameters evaluated included: activity measurements (arousal/alertness, posture/body carriage, stereotypy, rearing, and appearance), autonomic measurements (exophthalmus, lacrimation, erected fur, pupil response, salivation, defecation, and palpebral closure/ptosis), excitability measurements (vocalizations, startle response, ease of removal, handling reactivity, and convulsions), neuromuscular measurements (gait/mobility, grip strength/response, air righting reflex, tremor, and body tone), physiological measurements (respiration and body temperature), and sensorimotor measurements (touch response/tactile reflex and thermal response).

[1] = 1 h after last of 4 hourly SC injections, R-MDMA and racemic MDMA 10, 20 mg/kg/day, S-MDMA 5, 10 mg/kg/day
[2] = 1 h after last of 4 hourly SC injections, racemic MDMA 10, 20 mg/kg/day, S-MDMA 5, 10 mg/kg/day
[3] = FOB, cumulative SC dosing, dose groups stated in the value

Chain of Serotonin 5-HT2B (P41595 whole entry): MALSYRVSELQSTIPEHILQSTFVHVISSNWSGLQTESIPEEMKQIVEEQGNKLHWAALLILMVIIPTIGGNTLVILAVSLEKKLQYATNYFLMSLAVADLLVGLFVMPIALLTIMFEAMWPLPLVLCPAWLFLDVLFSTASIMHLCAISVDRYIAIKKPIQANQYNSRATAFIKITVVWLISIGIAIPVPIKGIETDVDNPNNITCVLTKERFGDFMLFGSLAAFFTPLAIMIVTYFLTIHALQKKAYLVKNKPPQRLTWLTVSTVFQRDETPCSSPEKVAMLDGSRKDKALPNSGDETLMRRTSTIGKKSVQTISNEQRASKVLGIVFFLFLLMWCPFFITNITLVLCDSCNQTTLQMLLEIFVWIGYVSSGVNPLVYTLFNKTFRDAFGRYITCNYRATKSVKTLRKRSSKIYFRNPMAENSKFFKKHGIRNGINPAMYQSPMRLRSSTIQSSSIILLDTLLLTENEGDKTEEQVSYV

CNC(C)Cc1ccc2c(c1)OCO2 (single isomer, unassigned) [S-MDMA, S(+)-MDMA]
IC50 (Serotonin 5-HT2B; IC50, 10 half-log concentrations): 12 µM
Ki (Serotonin 5-HT2B; Ki, 10 half-log concentrations): 7.65 µM
neurite number (#) (cortical neurons): did not significantly alter
neurite total length (μm) (cortical neurons): did not significantly alter
total number of branch points (#) (cortical neurons): did not significantly alter
arousal/alertness and rearing (CD (Sprague Dawley) rats; [1]): general increase in overall levels of arousal/alertness and rearing
ease of removal from the home cage and handling reactivity (excitability) (CD (Sprague Dawley) rats; [1]): Dose-dependent increased difficulty in removal from the home cage and increased handling reactivity
forelimb grip strength (CD (Sprague Dawley) rats; [1]): dose-dependent statistically significant decreases in forelimb grip strength
salivation and erected fur (autonomic) (CD (Sprague Dawley) rats; [1]): Dose-dependent increased salivation and erected fur
unkempt appearance (CD (Sprague Dawley) rats; [1]): increased incidence of unkempt appearance in a dose-dependent manner
stereotypies (mouth movements/weaving, circling/retropulsion, sniffing) (CD (Sprague Dawley) rats; 1 h after last of 4 hourly SC injections, highest doses: S-MDMA 10, racemic-MDMA 20 mg/kg/day, R-MDMA 10, 20 mg/kg/day): observed in animals treated with S-MDMA and racemic-MDMA only at the highest tested doses; also recorded: only one S-MDMA-treated animal was reported with stereotypical behaviors
general gait/mobility changes (CD (Sprague Dawley) rats; [2]): General gait/mobility changes were only observed
respiration (CD (Sprague Dawley) rats; [2]): Rapid respiration was noted
Rank Order Activity Measurement Effects (CD (Sprague Dawley) rats; [3]): S-MDMA (5 mg/kg/day) < R-MDMA (10 mg/kg/day) < Rac.-MDMA (10 mg/kg/day); also recorded: Rac.-MDMA (20 mg/kg/day) < S-MDMA (10 mg/kg/day) < R-MDMA (20 mg/kg/day); also recorded: S-MDMA (0 mg/kg/day) < S-MDMA (5 mg/kg/day) < S-MDMA (10 mg/kg/day); also recorded: Rac.-MDMA (20 mg/kg/day) < S-MDMA (10 mg/kg/day) < R-MDMA (10 mg/kg/day)
Rank Order Autonomic Measurement Effects (CD (Sprague Dawley) rats; [3]): R-MDMA (10 mg/kg/day) < S-MDMA (5 mg/kg/day) < Rac.-MDMA (10 mg/kg/day); also recorded: R-MDMA (20 mg/kg/day) < S-MDMA (10 mg/kg/day) < Rac-MDMA (20 mg/kg/day); also recorded: S-MDMA (0 mg/kg/day) < S-MDMA (5 mg/kg/day) < S-MDMA (10 mg/kg/day); also recorded: R-MDMA (10 mg/kg/day) < S-MDMA (10 mg/kg/day) = Rac-MDMA (20 mg/kg/day)
Rank Order Excitability Measurement Effects (CD (Sprague Dawley) rats; [3]): R-MDMA (10 mg/kg/day) < S-MDMA (5 mg/kg/day) < Rac.-MDMA (10 mg/kg/day); also recorded: R-MDMA (20 mg/kg/day) = S-MDMA (10 mg/kg/day) < Rac-MDMA (20 mg/kg/day); also recorded: S-MDMA (0 mg/kg/day) < S-MDMA (5 mg/kg/day) < S-MDMA (10 mg/kg/day); also recorded: R-MDMA (10 mg/kg/day) < S-MDMA (10 mg/kg/day) < Rac-MDMA (20 mg/kg/day)
Rank Order Neuromuscular Measurement Effects (CD (Sprague Dawley) rats; [3]): R-MDMA (10 mg/kg/day) < S-MDMA (5 mg/kg/day) < Rac.-MDMA (10 mg/kg/day); also recorded: R-MDMA (20 mg/kg/day) = S-MDMA (10 mg/kg/day) < Rac-MDMA (20 mg/kg/day); also recorded: S-MDMA (0 mg/kg/day) < S-MDMA (5 mg/kg/day) = S-MDMA (10 mg/kg/day); also recorded: R-MDMA (10 mg/kg/day) < S-MDMA (10 mg/kg/day) < Rac-MDMA (20 mg/kg/day)
Rank Order Physiological Measurement Effects (CD (Sprague Dawley) rats; [3]): R-MDMA (10 mg/kg/day) < S-MDMA (5 mg/kg/day) < Rac.-MDMA (10 mg/kg/day); also recorded: R-MDMA (20 mg/kg/day) < S-MDMA (10 mg/kg/day) = Rac-MDMA (20 mg/kg/day); also recorded: S-MDMA (0 mg/kg/day) < S-MDMA (5 mg/kg/day) < S-MDMA (10 mg/kg/day); also recorded: R-MDMA (10 mg/kg/day) < S-MDMA (10 mg/kg/day) = Rac-MDMA (20 mg/kg/day)
Rank Order Sensorimotor Measurement Effects (CD (Sprague Dawley) rats; [3]): S-MDMA (5 mg/kg/day) < Rac-MDMA (10 mg/kg/day) < R-MDMA (10 mg/kg/day); also recorded: S-MDMA (10 mg/kg/day) < Rac-MDMA (20 mg/kg/day) < R-MDMA (20 mg/kg/day); also recorded: S-MDMA (0 mg/kg/day) < S-MDMA (10 mg/kg/day) < S-MDMA (5 mg/kg/day)
thermal response times (CD (Sprague Dawley) rats; at levels at least two-fold that of vehicle-treated groups, 1 h after last of 4 hourly SC injections): Statistically significant increases in thermal response times

Reference: patent US20240082212A1, “USE OF MDMA FOR TREATMENT OF STRESS-RELATED DISORDERS” (priority 2022, published 2024)
